Data: the supplement of paper PMC10307832

How the values were obtained:
Test in all cases: relative viability (nuclei count vs DMSO), 5 days (fraction); higher = more cells survive
Dinaciclib + Alpelisib = compound: CCc1cnn2c(NCc3ccc[n+]([O-])c3)cc(N3CCCC[C@H]3CCO)nc12 [Dinaciclib] + Cc1nc(NC(=O)N2CCC[C@H]2C(N)=O)sc1-c1ccnc(C(C)(C)C(F)(F)F)c1 [Alpelisib] (partner 2 µM)
Method in brief: (§1)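 One day after seeding in 1536-well plates, lung cancer cell lines were dosed by pin tool. Dosing was either single-drug or a fixed anchor-drug dose plus five library-drug doses (not always all listed) in √10 steps. After 5 days, nuclei were stained in one fix-and-stain step and counted on 4× images, and relative viability is the nuclei count of treated wells over that of vehicle wells, given as the median of duplicate plates.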

Dinaciclib + Pemetrexed = compound: CCc1cnn2c(NCc3ccc[n+]([O-])c3)cc(N3CCCC[C@H]3CCO)nc12 [Dinaciclib] + Nc1nc2[nH]cc(CCc3ccc(C(=O)N[C@@H](CCC(=O)O)C(=O)O)cc3)c2c(=O)[nH]1 [Pemetrexed] (partner 0.2 µM)
Method in brief: as §1

Dinaciclib + Decitabine = compound: CCc1cnn2c(NCc3ccc[n+]([O-])c3)cc(N3CCCC[C@H]3CCO)nc12 [Dinaciclib] + Nc1ncn([C@H]2C[C@H](O)[C@@H](CO)O2)c(=O)n1 [Decitabine] (partner 2 µM)
Method in brief: as §1

Dinaciclib + Vorinostat = compound: CCc1cnn2c(NCc3ccc[n+]([O-])c3)cc(N3CCCC[C@H]3CCO)nc12 [Dinaciclib] + O=C(CCCCCCC(=O)Nc1ccccc1)NO [Vorinostat] (partner 1 µM)
Method in brief: as §1

Dinaciclib + Olaparib = compound: CCc1cnn2c(NCc3ccc[n+]([O-])c3)cc(N3CCCC[C@H]3CCO)nc12 [Dinaciclib] + O=C(c1cc(Cc2n[nH]c(=O)c3ccccc23)ccc1F)N1CCN(C(=O)C2CC2)CC1 [Olaparib] (partner 8 µM)
Method in brief: as §1

Cell Line | relative viability (Dinaciclib + Alpelisib; first compound 0.009487 µM) | relative viability (Dinaciclib + Alpelisib; first compound 0.03 µM) | relative viability (Dinaciclib + Alpelisib; first compound 0.09487 µM) | relative viability (Dinaciclib + Alpelisib; first compound 0.3 µM) | relative viability (Dinaciclib + Pemetrexed; first compound 0.009487 µM) | relative viability (Dinaciclib + Pemetrexed; first compound 0.03 µM) | relative viability (Dinaciclib + Pemetrexed; first compound 0.09487 µM) | relative viability (Dinaciclib + Pemetrexed; first compound 0.3 µM) | relative viability (Dinaciclib + Decitabine; first compound 0.009487 µM) | relative viability (Dinaciclib + Decitabine; first compound 0.03 µM) | relative viability (Dinaciclib + Decitabine; first compound 0.09487 µM) | relative viability (Dinaciclib + Decitabine; first compound 0.3 µM) | relative viability (Dinaciclib + Vorinostat; first compound 0.009487 µM) | relative viability (Dinaciclib + Vorinostat; first compound 0.03 µM) | relative viability (Dinaciclib + Vorinostat; first compound 0.09487 µM) | relative viability (Dinaciclib + Vorinostat; first compound 0.3 µM) | relative viability (Dinaciclib + Olaparib; first compound 0.009487 µM) | relative viability (Dinaciclib + Olaparib; first compound 0.03 µM) | relative viability (Dinaciclib + Olaparib; first compound 0.09487 µM) | relative viability (Dinaciclib + Olaparib; first compound 0.3 µM)
SK-LU-1 | 0.637 | 0.197 | 0.18 | 0.194 | 0.97 | 0.226 | 0.229 | 0.185 | 0.64 | 0.234 | 0.211 | 0.227 | 0.65 | 0.241 | 0.233 | 0.208 | 0.381 | 0.173 | 0.165 | 0.16
NCI-H1437 | 0.87 | 0.182 | 0.0937 | 0.094 | 0.343 | 0.149 | 0.158 | 0.12 | 0.405 | 0.194 | 0.182 | 0.197 | 0.87 | 0.183 | 0.181 | 0.177 | 0.418 | 0.159 | 0.138 | 0.158
NCI-H1734 | 0.607 | 0.271 | 0.127 | 0.138 | 0.417 | 0.147 | 0.149 | 0.136 | 0.5 | 0.277 | 0.134 | 0.139 | 0.571 | 0.144 | 0.142 | 0.126 | 0.468 | 0.117 | 0.113 | 0.12
LK-2 | 0.849 | 0.274 | 0.232 | 0.199 | 0.38 | 0.0867 | 0.0811 | 0.0749 | 0.27 | 0.119 | 0.0855 | 0.0805 | 0.251 | 0.152 | 0.148 | 0.161 | 0.615 | 0.0883 | 0.0805 | 0.0778
HCC-15 | 0.863 | 0.169 | 0.0978 | 0.0964 | 0.217 | 0.122 | 0.128 | 0.125 | 0.521 | 0.139 | 0.13 | 0.129 | 0.715 | 0.355 | 0.121 | 0.124 | 0.494 | 0.199 | 0.106 | 0.119
HCC-366 | 0.366 | 0.0443 | 0.0165 | 0.0153 | 0.171 | 0.0414 | 0.0345 | 0.0329 | 0.237 | 0.133 | 0.0321 | 0.0394 | 0.193 | 0.0415 | 0.0286 | 0.0247 | 0.174 | 0.032 | 0.0277 | 0.0241
NCI-H650 | 1.21 | 0.192 | 0.165 | 0.176 | 0.877 | 0.305 | 0.115 | 0.139 | 0.308 | 0.204 | 0.118 | 0.124 | 0.336 | 0.146 | 0.129 | 0.157 | 0.382 | 0.13 | 0.12 | 0.104
